What was measured:
BACE1 (beta-secretase 1) [1] = molecular target: T1, BACE1 (beta-secretase 1) (Homo sapiens, UniProt P56817); experiment: FRET substrate cleavage assay (Sigma kit); format: biochemical
T1 construct: commercial BACE1 enzyme (Sigma); amine-coupled on CM5 chip for SPR, free enzyme in FRET assay

BACE1 (beta-secretase 1) [2] = molecular target: T1, BACE1 (beta-secretase 1); experiment: SPR (Biacore T200, steady-state affinity); format: binding
[3] = molecular target: T2, Aβ1-42 (amyloid-β1-42) oligomer (Homo sapiens, UniProt P05067); experiment: SPR (Biacore T200, steady-state affinity); format: binding
T2 construct: gene APP; commercial 42-residue peptide (Sigma), cut from amyloid precursor protein (APP residues 672-713); oligomer, amine-coupled on CM5 chip
T2 sequence (P05067 672-713): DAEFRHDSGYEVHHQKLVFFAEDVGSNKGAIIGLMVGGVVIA

T1 sequence (P56817 46-501): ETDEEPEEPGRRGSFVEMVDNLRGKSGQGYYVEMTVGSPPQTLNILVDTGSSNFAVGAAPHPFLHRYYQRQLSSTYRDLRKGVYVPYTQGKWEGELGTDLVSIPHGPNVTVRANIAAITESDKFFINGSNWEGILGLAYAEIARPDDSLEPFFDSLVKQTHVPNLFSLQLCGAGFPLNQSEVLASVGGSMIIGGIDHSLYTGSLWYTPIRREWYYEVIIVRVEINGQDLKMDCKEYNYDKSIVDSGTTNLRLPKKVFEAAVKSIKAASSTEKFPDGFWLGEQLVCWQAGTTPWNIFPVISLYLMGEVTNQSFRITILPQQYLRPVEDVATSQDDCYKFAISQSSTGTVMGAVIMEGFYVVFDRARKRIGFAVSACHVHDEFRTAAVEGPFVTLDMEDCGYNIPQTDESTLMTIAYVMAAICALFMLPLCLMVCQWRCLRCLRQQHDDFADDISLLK

## COc1ccc2cc3[n+](cc2c1OC)CCc1cc2c(cc1-3)OCO2 [berberine]
BACE1 (beta-secretase 1) [1]
  IC50: 63000 nM
BACE1 (beta-secretase 1) [2]
  Kd: 1260 nM
[3]
  Kd: 1490 nM

— paper PMC6066535, “Polypharmacology of Berberine Based on Multi-Target Binding Motifs” (Frontiers in Pharmacology, 2018)
